Tests used:
Rattus norvegicus = species: Rattus norvegicus; assay: Minimal effective dose in an rat anti-immobility effect using behavioral despair test; assay type: functional; details: read-out: MED
Adenosine receptor A1 = target: T1, Adenosine receptor A1 (Rattus norvegicus, UniProt P25099); assay: Binding affinity towards the adenosine A1 receptor in cerebral cortices of Sprague-Dawley male rats using [3H]CHA as radioligand.
T1 sequence (P25099 whole entry): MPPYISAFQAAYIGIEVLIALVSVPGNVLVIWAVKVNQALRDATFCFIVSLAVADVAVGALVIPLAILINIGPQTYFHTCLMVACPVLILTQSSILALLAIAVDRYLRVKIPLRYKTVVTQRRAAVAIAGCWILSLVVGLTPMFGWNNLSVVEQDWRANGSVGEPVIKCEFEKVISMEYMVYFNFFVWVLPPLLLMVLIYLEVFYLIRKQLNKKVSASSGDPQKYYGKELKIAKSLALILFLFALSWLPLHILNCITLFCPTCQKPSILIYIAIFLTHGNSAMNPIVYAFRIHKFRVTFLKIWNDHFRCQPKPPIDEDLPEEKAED

Adenosine A2 receptor = Adenosine A2 receptor (Rattus norvegicus, UniProt P29276+P30543)

| Compound | minimal effective dose (Rattus norvegicus) [mg/kg] | IC50 (Adenosine receptor A1) [µM] | IC50 (Adenosine A2 receptor) [µM] |
| --- | --- | --- | --- |
| CCc1nnc2c(N(CC)CC)nc3cc(Cl)ccc3n12 | 10 |  |  |
| CCN(CC)c1nc2ccc(F)cc2n2c(C(F)(F)F)nnc12 | > 32 |  |  |
| CC(C)(C)Nc1nc2ccccc2n2cnnc12 | > 32 | 19 |  |
| CC(=O)Nc1nc2cc(F)ccc2n2cnnc12 | ≤ 32 |  |  |
| CCc1nnc2c(N3CCCC3)nc3ccccc3n12 | > 3.2 | 10 |  |
| CCN(CC)c1nc2ccccc2n2c(-c3ccccc3)nnc12 | 1 |  |  |
| Cc1nnc2c(NC(C)C)nc3ccccc3n12 | 10 | 0.85 |  |
| Clc1ccc2nc(N3CCNCC3)c3nncn3c2c1 | > 32 |  |  |
| CCc1nnc2c(N3CCCCC3)nc3ccccc3n12 | 10 | 3.5 |  |
| CCNc1nc2ccc(F)cc2n2c(CC)nnc12 | 3.2 | 0.7 |  |
| CCNc1nc2ccc(Cl)cc2n2c(C(F)(F)F)nnc12 | ≤ 32 |  |  |
| CN1CCN(c2nc3ccccc3n3cnnc23)CC1 | > 32 | > 100 |  |
| CCc1nnc2c(NC(C)=O)nc3cc(Cl)ccc3n12 | 3.2 |  |  |
| CCNc1nc2ccccc2n2c(C(C)C)nnc12 | ≤ 32 | 2.2 |  |
| CCc1nnc2c(N3CCOCC3)nc3ccccc3n12 | > 10 | 28 |  |
| O=C1CCCN1c1nc2ccccc2n2cnnc12 | > 32 | > 100 |  |
| Cc1nnc2c(N3CCCC3)nc3ccccc3n12 | > 32 | 49 |  |
| CCc1nnc2c(N(C)C)nc3cc(Cl)c(Cl)cc3n12 | 3.2 |  |  |
| CCc1nnc2c(NC(=O)C(C)(C)C)nc3ccc(Cl)cc3n12 | ≤ 32 |  |  |
| c1ccc2c(c1)nc(N1CCCCC1)c1nncn12 | > 32 | 100 |  |
| CCc1nnc2c(N(C(C)=O)C(C)=O)nc3ccccc3n12 | 3.2 | 9.3 |  |
| CC(C)Nc1nc2cc(F)c(F)cc2n2cnnc12 | ≤ 3.2 | 1.9 |  |

| Compound | minimal effective dose (Rattus norvegicus) [mg/kg] | IC50 (Adenosine receptor A1) [µM] | IC50 (Adenosine A2 receptor) [µM] |
| --- | --- | --- | --- |
| CCN(CC)c1nc2ccccc2n2c(C(F)(F)F)nnc12 | ≤ 32 |  |  |
| CCN(CC)c1nc2cc(Br)c(Br)cc2n2cnnc12 | > 32 |  |  |
| CCCN(CCC)c1nc2ccccc2n2cnnc12 | > 32 | ≥ 100 |  |
| CC(=O)N(c1nc2cc(Cl)c(Cl)cc2n2cnnc12)C(C)C | > 32 |  |  |
| CCc1nnc2c(N(C)C)nc3cc(Cl)ccc3n12 | 10 |  |  |
| CCc1nnc2c(NC(C)=O)nc3cc(F)ccc3n12 | ≤ 3.2 |  |  |
| CC(=O)Nc1nc2ccc(Cl)cc2n2c(C(F)(F)F)nnc12 | ≤ 3.2 | 0.63 |  |
| CCc1nnc2c(N3CCNCC3)nc3cc(Cl)c(Cl)cc3n12 | ≤ 32 |  |  |
| CCc1nnc2c(NC(C)=O)nc3cc(OC)ccc3n12 | > 32 |  |  |
| CC(=O)N(c1nc2ccc(Cl)cc2n2cnnc12)C(C)C | ≤ 32 |  |  |
| CCC(=O)Nc1nc2ccc(Cl)cc2n2c(CC)nnc12 | ≤ 3.2 |  |  |
| CCCc1nnc2c(N(CC)CC)nc3ccccc3n12 | ≤ 32 |  |  |
| CC(=O)Nc1nc2ccc(Cl)cc2n2c(C)nnc12 | 3.2 |  |  |
| CCc1nnc2c(N(CC)C(C)=O)nc3ccccc3n12 | ≤ 32 |  |  |
| CC(=O)N(C(C)=O)c1nc2ccc(Cl)cc2n2cnnc12 | ≤ 32 |  |  |
| CCN(CC)c1nc2ccccc2n2c(C(C)C)nnc12 | ≤ 32 | 19 |  |
| CCN(CC)c1nc2ccc(F)cc2n2cnnc12 | 3.2 | > 10 |  |
| COc1ccc2c(c1)nc(NC(C)C)c1nncn12 | > 32 |  |  |
| CCNc1nc2cc(F)c(F)cc2n2cnnc12 | 3.2 | 4.7 |  |
| CCc1nnc2c(N(CC)CC)nc3ccc(OC)cc3n12 | ≤ 32 |  |  |
| CC(=O)Nc1nc2ccccc2n2cnnc12 | ≤ 32 |  |  |
| CCN(CC)c1nc2ccccc2n2c(C)nnc12 | 3.2 | > 10 |  |

| Compound | minimal effective dose (Rattus norvegicus) [mg/kg] | IC50 (Adenosine receptor A1) [µM] | IC50 (Adenosine A2 receptor) [µM] |
| --- | --- | --- | --- |
| Cc1nnc2c(NC(C)C)nc3ccc(Cl)cc3n12 | 3.2 | 0.1 |  |
| CCNc1nc2cc(F)ccc2n2c(CC)nnc12 | ≤ 32 |  |  |
| CC(=O)Nc1nc2ccc(F)cc2n2cnnc12 | ≤ 32 |  |  |
| CN(C)c1nc2ccc(F)cc2n2cnnc12 | ≤ 32 |  |  |
| Cc1nnc2c(N)nc3ccc(Cl)cc3n12 | ≤ 32 | 0.35 |  |
| CCNc1nc2ccc(Cl)cc2n2c(-c3ccccc3)nnc12 | > 32 |  |  |
| CCN(CC)c1nc2ccc(Cl)cc2n2c(C)nnc12 | ≤ 32 | 17 |  |
| CCNc1nc2ccc(Cl)cc2n2c(CC)nnc12 | 3.2 |  |  |
| CC(C)Nc1nc2cc(Cl)c(Cl)cc2n2cnnc12 | 3.2 | 1 |  |
| CC(=O)N(C(C)=O)c1nc2ccccc2n2cnnc12 | ≤ 32 |  |  |
| CCc1nnc2c(NC(C)=O)nc3ccccc3n12 | 1 |  |  |
| CCc1nnc2c(N(CC)CC)nc3cc(F)c(F)cc3n12 | 3.2 |  |  |
| CCc1nnc2c(NC(C)=O)nc3ccc(F)cc3n12 | ≤ 3.2 |  |  |
| CCN(CC)c1nc2ccc(Cl)cc2n2c(-c3ccccc3)nnc12 | > 32 |  |  |
| c1ccc2c(c1)nc(N1CCCC1)c1nncn12 | > 32 | 50 |  |
| CCc1nnc2c(N3CCCC3=O)nc3ccccc3n12 | > 32 |  |  |
| CCc1nnc2c(NC)nc3ccccc3n12 | 3.2 | 6 |  |
| CCc1nnc2c(NC(C)=O)nc3cc(Cl)c(Cl)cc3n12 | ≤ 3.2 | 1.3 |  |
| CCc1nnc2c(NC(C)=O)nc3ccc(Cl)cc3n12 | 1 | 1.8 |  |
| CCc1nnc2c(N(CC)CC)nc3ccc(Cl)cc3n12 | ≤ 32 | 6.5 |  |
| CCCC(=O)Nc1nc2ccc(Cl)cc2n2c(CC)nnc12 | ≤ 32 |  |  |
| Nc1nc2cc(Cl)ccc2n2cnnc12 | ≤ 32 | 1.2 | 0.21 |

| Compound | minimal effective dose (Rattus norvegicus) [mg/kg] | IC50 (Adenosine receptor A1) [µM] | IC50 (Adenosine A2 receptor) [µM] |
| --- | --- | --- | --- |
| CCc1nnc2c(N(CC)CC)nc3ccc(F)cc3n12 | 10 |  |  |
| CCc1nnc2c(NCCO)nc3ccccc3n12 | ≤ 32 | 1.6 |  |
| Oc1cccc(C2=CSC3=Nc4ccccc4CN23)c1 |  | 18 | 0.53 |
| CCc1nnc2c(N(C(C)=O)C(C)C)nc3ccc(Cl)cc3n12 | 10 |  |  |
| COc1ccc2c(c1)nc(NC(C)=O)c1nncn12 | ≤ 32 |  |  |
| CCNc1nc2ccccc2n2c(C(F)(F)F)nnc12 | 32 |  |  |
| CCc1nnc2c(N(CC)CC)nc3cc(Cl)c(Cl)cc3n12 | 3.2 | 100 |  |
| CN(C)c1nc2ccccc2n2cnnc12 | ≤ 32 | 59 |  |
| CCN(CC)c1nc2ccc(OC)cc2n2cnnc12 | > 32 |  |  |
| CNc1nc2ccccc2n2cnnc12 | 32 | 100 |  |
| CCN(CC)c1nc2cc(Cl)ccc2n2cnnc12 | 32 |  |  |
| CCN(CC)c1nc2cc(F)c(F)cc2n2cnnc12 | 3.2 | 5 |  |
| c1ccc2c(c1)nc(N1CCOCC1)c1nncn12 | > 32 |  |  |
| COc1nnc2c(NC(C)C)nc3ccc(Cl)cc3n12 | ≤ 32 |  |  |
| Nc1nc2cc(Cl)c(Cl)cc2n2cnnc12 | > 32 |  |  |
| CC(=O)Nc1nc2ccc(F)cc2n2c(C(F)(F)F)nnc12 | ≤ 3.2 | 3.6 |  |
| CC(CO)Nc1nc2ccc(F)cc2n2cnnc12 (centres undefined) | > 32 |  |  |
| CC(N)Cc1ccccc1.O=S(=O)(O)O (centres undefined) [AMPHETAMINE SULFATE] | < 1 |  |  |
| Nc1nc2ccc(Cl)cc2c2nc(-c3ccco3)nn12 [CGS-15943] | < 32 |  | 0.0028 |
| CN(C)CCCN1c2ccccc2CCc2ccccc21 [IMIPRAMINE] | > 17.8 |  |  |
